Assay results as given in patent publication US8247540B2, “Caged nucleotides and oligonucleotides and their application” (priority 2008, dated 2012).
Values joined by “and” are separate entries in the source; they are usually repeats but may differ in a detail not shown here. Equal entries are not always repeated. Values belong to the molecule of their own block, whether it stands above or below them. Strand notation (5' to 3'): a small letter for the sugar, then the base; units joined by * are phosphorothioate-linked, units joined directly phosphodiester-linked; [ ] holds rarer units or linkages, { } end groups; capitals alone tell only the bases. [cagedT] = caged thymidine: thymidine bearing a photolabile caging group, removed by UV irradiation at 365 nm; [cageT] = thymidine carrying a photolabile caging group (caged thymidine), removed by 365 nm UV light; [NPOM-T] = NPOM-caged (photocaged) thymidine; d = 2'-deoxy (DNA)

Legend:
[1] = test system: complementary RNA sequence (5′ UCCAGAACAAAGGAAACG 3′); experiment: Melting temperature of PS DNA/RNA hybrids before and after irradiation; assay type: binding; details: PS DNA/RNA hybrid; for Mp/° C. +UV: after irradiation (5 min, 365 nm, 23 W); for Mp/° C. −UV: before irradiation
From the text: The capacity of the three and four caging groups to inhibit hybridization of the caged PS DNA oligomer to the complementary RNA sequence (5′ UCCAGAACAAAGGAAACG 3′) [SEQ ID NO 14] was examined. Hybridization was monitored on a BioRad MyiQ RT-PCR thermocycler by conducting a sequence of 3 heating and cooling cycles. […] Complete hybridization was restored upon a 5-minute irradiation at 365 nm for both caged analogs (Table 2).

[2] = test system: Renilla luciferase reporter gene; experiment: Renilla luciferase antisense assay in NIH 3T3 cells (dual reporter); assay type: cell-based, mouse; details: for antisense activity / effect on the luciferase signal: NIH 3T3, without UV irradiation
From the text: The error bars represent the standard deviation of three independent experiments.
These antisense oligomers were transfected into mouse fibroblast cells (NIH 3T3) together with a dual reporter system encoding Renilla luciferase and firefly luciferase as a transfection control.

[3] = test system: DNA template (plasmid DNA); experiment: Light-triggered polymerase chain reaction (activation and deactivation); assay type: biochemical
Method: The DNA template (1.5 ng/μL of plasmid DNA) was incubated in the presence of P5 and a reverse primer (5′[…]-GT 3′, [SEQ ID NO 11] 1 μM each; the same reverse primer was used in all PCRs) with nucleotide triphosphates (dNTPs, 0.3 mM each), in Taq Reaction Buffer (10 mM Tris-HCl, 50 mM. KCl, 1.5 mM MgCl2, pH 8.3) and water. Taq DNA Polymerase (3 units/μL) was added to initiate the reaction. Prior to placement in a PCR thermocycler (Eppendor Mastercycler) the reaction was either irradiated for 8 minutes at 365 nm, or maintained in the dark. An initial denaturation at 95° C. was performed, followed by 40 cycles of 95° C. (30 sec), 50° C. (30 sec), and 72° C. (1 min), with a final extension at 72° C. (2 min). The reactions were conducted in triplicate, visualized on a 1% agarose gel, and quantitated (all DNA was quantified by band integration in ethidium bromide stained agarose gels using Image Quant 5.2). […] This experiment represented the first example of a light-activated PCR. While we initially employed irradiation prior to the thermal cycling, temporal control was also achieved by initiating the reaction through irradiation at a specific timepoint. Here, an identical reaction with UV irradiating at cycle 15 was conducted. Prior to irradiation, no PCR product can be detected in reactions conducted with the caged primer P5. In contrast, the non-caged primer P1 lead to the expected exponential amplification.
After achieving photochemical control of the activation of PCR at a specific time point, the possibility to switch-off PCR activity via light irradiation was examined. This was accomplished by designing a self-complementary primer which was predisposed to form a hairpin, rather than act as a PCR primer. By installing caging groups on the complementary portion of this sequence it was possible to block self-hybridization, which enabled the polymerization reaction. The PCR was then stopped by removing the photoactive groups, leading to hairpin formation and primer deactivation (FIG. 7). In order to achieve photochemical deactivation, an appropriate hairpin primer P8 was designed (5′ […] 3′) [SEQ ID NO. 12], and a photocaged analog P9 was synthesized (5′ […] 3′) [SEQ ID NO. 13]. […] However, in the absence of light irradiation the caged hairpin primer P9 was successful in acting as a primer, yielding 137 ng of PCR product (not shown).
Light-regulatory mechanisms were also employed in a temporally controlled fashion by irradiating the caged primer after 10 cycles of PCR. The non-caged primer P8 was used as a control, as it formed a hairpin immediately, blocking Taq DNA polymerase and inhibiting amplification. Because the caged primer P9 was able to bind to the DNA template, amplification occurred. […] At the same point, amplification continued in the non-irradiated reaction with P9.

[4] = test system: non-caged complement (5′ CGAACCTGGTCGAAATCAG 3′); experiment: Melting temperatures of caged and non-caged PCR primers with complementary DNA; assay type: binding; details: for Mp/° C. +UV: after 8 minutes irradiation at 365 nm; for Mp/° C. −UV: before UV, 1 μM primer and complementary DNA; for melting temperature depression: single caging group, versus P1, −UV
Method: The DNA oligomers P1-P7, consisting of 19 nucleotides, a typical length for PCR primers, and containing 0-4 caged thymidines have been synthesized (Table 1). These primers were than analyzed for their annealing and melting properties in the presence of a complementary oligonucleotide.
Melting curves were measured on a BioRad MyiQ RT-PCR thermocycler by conducting a sequence of 3 heating and cooling cycles (1 μM of both primer and complementary DNA with 12.5 μL iQ SYBR Green Supermix to a total volume of 25 μL; 40° C. to 80° C. with a 0.5° C./min ramp). The melting temperatures were determined to be 65.3° C. (P1), 62.1° C. (P2), 54.3° C. (P3), 55.5° C. (P4), and 50.0° C. (P6). […] This effect was less pronounced in P2, perhaps due to the caged T's close proximity to the 5′ terminus, which lead to a lower level of interference with the hybridization of neighboring nucleotides. With the incorporation of additional caging groups in P4-P7, melting temperatures decreased further. However, addition of a single caged thymidine close to the 5′ terminus of P3 had no effect in P4. […] In order to ensure a complete removal of the photolabile group, each primer was irradiated for 8 minutes at 365 nm, and then analyzed in the same melting temperature assay.

[5] = test system: chordin; experiment: Light-regulation of morpholino activity in zebrafish embryos; assay type: in vivo
Method: Percentages represent the frequency of the pictured phenotype in live fish. A) Non-injected embryo (100%). B) Injection of the non-caged Chordin-0 MO (100%). C) Injection of the caged MO (Chordin-4) −UV irradiation (80%). D) Injection of the caged MO (Chordin-4) +UV irradiation for 60 sec at 365 nm (100%). Identical amounts were injected in each experiment. The expanded blood island (arrows) is indicative of the chordin phenotype.
Injections with the non-caged and caged morpholino oligomers containing four […] monomers targeting chordin were conducted. Zebrafish embryos were injected into the yolk sac at the 1-4 cell stage with ˜1 nl of 500 μm caged Chordin-4 morpholino (5′ AT*CCACAGCAGCCCCT*CCAT*CAT*CC 3′ [SEQ ID NO 2]; T* denotes the caged thymidine; containing 0.15% phenol red to verify injection). Immediately after injection, half of the injected embryos were exposed to 365 nm UV light for 60 sec. The other half was protected from light. Half of the uninjected control embryos were also exposed to 365 nm UV for 60 sec, and no phenotypic differences between ±UV were detected. All embryos were grown at 28° C. for about 28 hours before their phenotypes were photographed. The chordin gene induces dorsalization of the developing embryo and injection of an anti-chordin MO induces a phenotype resembling chordin null-mutant embryos by displaying abnormally shaped somites, an expanded blood island (see arrows in FIG. 5), an abnormal tail fin, and a reduced head (see FIG. 5B compared to the non-injected fish shown in FIG. 5A).

[6] = Stability of the caging group to PCR conditions; assay type: physicochemical; details: elevated temperatures required for PCR
[7] = activation experiment, no UV irradiation, 40 cycles

Molecule: 3-Caged: phosphorothioate DNA 5′ CGTTT*CCTTT*GTTCT*GGA 3′, T* NPOM-caged thymidine, SEQ ID NO 17 (DNA dC*dG*dT*dT*d[NPOM-T]*dC*dC*dT*dT*d[NPOM-T]*dG*dT*dT*dC*d[NPOM-T]*dG*dG*dA)
- Mp/° C. +UV [1]: 39.2 ± 0.6 °C
- antisense activity / effect on the luciferase signal [2]: completely inhibited the antisense activity

Molecule: P5: primer with three caging groups distributed throughout the DNA oligomer, SEQ ID NO 7 (DNA CTGATTTCGACCAGGTTCG; DNA, [cageT] at 2, 7, 17, backbone not given here)
- DNA amplification ([3]; UV irradiation at cycle 15): increases exponentially
- PCR product ([3]; activation experiment, irradiated 8 minutes at 365 nm before cycling, 40 cycles): comparable amounts of PCR product as found in the reaction with P1
- PCR product [3, 7]: only trace amounts
- Mp/° C. +UV [4]: 64.2 ± 0.2 °C
- Mp/° C. −UV [4]: No melting temperatures could be measured

Molecule: 7. Non-caged: non-caged phosphorothioate DNA targeting Renilla luciferase, 5′ CGTTTCCTTTGTTCTGGA 3′, SEQ ID NO 16
- Mp/° C. +UV [1]: 39.3 ± 0.8 °C
- Mp/° C. −UV [1]: 39.5 ± 0.5 °C
- Mp/° C. −UV ([1]; listed as non-caged PS DNA): approximately 39 °C
- down-regulation of the Renilla luciferase signal ([2]; NIH 3T3, no UV): 70%

Molecule: P2: primer 5′ CTGATTTCGACCAGGTTCG 3′ with a single caged thymidine close to the 5′ terminus, SEQ ID NO 4 (DNA, [cageT] at 2, backbone not given here)
- Mp/° C. +UV [4]: 64.1 ± 0.2 °C
- Mp/° C. −UV [4]: 62.1 °C and 62.1 ± 0.7 °C
- melting temperature depression [4]: 3.2 °C

Molecule: P7: caged primer 5′ CTGATTTCGACCAGGTTCG 3′, SEQ ID NO 9, probably four caged thymidines (DNA, [cagedT] at 2, 5, 7, 17, backbone not given here; PCR primer)
- Mp/° C. +UV [4]: 64.2 ± 0.3 °C
- Mp/° C. −UV [4]: No melting temperatures could be measured

Molecule: Chordin-4: caged morpholino 5′ AT*CCACAGCAGCCCCT*CCAT*CAT*CC 3′, T* caged thymidine, four 21 monomers (DNA ATCCACAGCAGCCCCTCCATCATCC; morpholino, caged thymidines, chemistry not fully specified)
- frequency of the pictured phenotype in live fish ([5]; +UV irradiation for 60 sec at 365 nm, chordin phenotype pictured): 100%
- morpholino antisense activity (phenotype) ([5]; protected from light, about 28 hours at 28° C.): completely inactive
- frequency of the pictured phenotype in live fish ([5]; −UV irradiation, wild-type phenotype pictured): 80%

Molecule: P4: P3 with an additional caged thymidine close to the 5′ terminus, SEQ ID NO 6 (DNA CTGATTTCGACCAGGTTCG; DNA, [cageT] at 2, 7, backbone not given here)
- Mp/° C. +UV [4]: 63.8 ± 0.3 °C
- Mp/° C. −UV [4]: 55.5 °C and 55.5 ± 0.5 °C

Molecule: P3: primer 5′ CTGATTTCGACCAGGTTCG 3′ with a single caged thymidine, SEQ ID NO 5 (DNA, [cageT] at 7, backbone not given here)
- Mp/° C. +UV [4]: 64.1 ± 0.8 °C
- Mp/° C. −UV [4]: 54.3 °C and 54.3 ± 1.1 °C
- melting temperature depression [4]: 11.0 °C

Molecule: P1: non-caged 19 nucleotide PCR primer 5′ CTGATTTCGACCAGGTTCG 3′, SEQ ID NO 3 (DNA, backbone not given here) [reference compound]
- PCR product [3, 7]: approximately 140 ng
- Mp/° C. +UV [4]: 65.0 ± 0.8 °C
- Mp/° C. −UV [4]: 65.3 °C and 65.3 ± 0.3 °C

Molecule: 5. Control: control phosphorothioate DNA 5′ TCCAGAACAAAGGAAACG 3′, SEQ ID NO 15 (DNA dT*dC*dC*dA*dG*dA*dA*dC*dA*dA*dA*dG*dG*dA*dA*dA*dC*dG)
- Mp/° C. −UV [1]: No hybridization was detected
- antisense activity / effect on the luciferase signal [2]: no effect on the luciferase signal

Molecule: P8: non-caged hairpin primer 5′ GGTCAGTAAATTGTTTTTCAATTTACTGACCG 3′, SEQ ID NO 12 (hairpin primer, further chemistry not given here) [reference compound]
- PCR product ([3]; deactivation (hairpin primer) experiment, no light irradiation, 25 cycles): very little PCR product

Molecule: P6: primer with a cluster of three caged thymidines, SEQ ID NO 8 (DNA CTGATTTCGACCAGGTTCG; DNA, [cageT] at 5, 6, 7, backbone not given here)
- Mp/° C. +UV [4]: 64.5 ± 0.5 °C
- Mp/° C. −UV [4]: 50.0 °C and 50.0 ± 1.0 °C

- stability of the caging group to PCR conditions [6]: unaffected by the elevated temperatures
Molecule: Cc1cn(C2CC(O)C(CO)O2)c(=O)n(COC(C)c2cc3c(cc2[N+](=O)[O-])OCO3)c1=O (stereo not drawn) [monomeric caged thymidine, Caged thymidine]
